Experimental findings from patent US5220050A, “Peptide mimetic compounds useful as platelet aggregation inhibitors” (G. D. Searle & Co., priority 1991, dated 1993) are described below.

Structures can show the parent of a compound that is named as a salt.

This assay relates to Platelet Aggregation in Dog PRP. Nature of the assay: In-Vitro Platelet Aggregation in PRP (ADP induced). In kind it is cell-based. Conditions: for IC50: Canis lupus familiaris, Platelet, in-vitro. On the procedure:
Healthy male or female dogs were fasted for 8 hours prior to drawing blood; then 30 ml whole blood was collected using a butterfly needle and 30 cc plastic syringe with 3 ml of 0.129 M buffered sodium citrate (3.8%). The syringe was rotated carefully as blood was drawn to mix the citrate. Platelet-rich plasma (PRP) was prepared by centrifugation at 975×g for 3.17 minutes at room temperature, allowing the centrifuge to coast to a stop without braking. The PRP was removed from the blood with a plastic pipette and placed in a plastic capped, 50 ml Corning conical sterile centrifuge tube which was held at room temperature. Platelet poor plasma (PPP) was prepared by centrifuging the remaining blood at 2000×g for 15 minutes at room temperature allowing the centrifuge to coast to a stop without braking. The PRP was adjusted with PPP to a count of 2-3×10^8 platelets per ml. 400 μl of the PRP preparation and 50 μl of the compound to be tested or saline were preincubated for 1 minute at 37° C. in a BioData aggregometer (BioData, Horsham, Pa.). 50 μl of adenosine 5'diphosphate (ADP) (50 μm final concentration) was added to the cuvettes and the aggregation was monitored for 1 minute. All compounds are tested in duplicate. Results are calculated as follows:
Percent of control=[(maximal OD minus initial OD of compound) divided by (maximal OD minus initial OD of control saline)]×100. The % inhibition=100-(percent of control).

For the compound `N#Cc1ccc(C(CC(=O)O)NC(=O)CCCCc2ccc(C(=N)N)cc2)cc1` (stereo not drawn) [β-[[5-[4-(aminoiminomethyl)phenyl]-1-oxopentyl]amino]-4-cyanobenzenepropanoic acid], the IC50 (commonly the concentration needed to halve the response being measured) is 1300 nM. `CC(CCC(=O)NC(C)CC(=O)O)Cc1ccc(C(=N)N)cc1` (stereo not drawn) [3-[[5-[4-(aminoiminomethyl)phenyl]-4-methyl-1-oxopentyl]amino]butanoic acid] registered an IC50 of 1250 nM. The compound `N=C(N)c1ccc(CCCCC(=O)NC(CC(=O)O)c2ccc(Cl)c(Cl)c2)cc1` (stereo not drawn) [β-[[5-[4-(aminoiminomethyl)phenyl]-1-oxopentyl]amino]-3,4-dichlorobenzenepropanoic acid] had a 50% inhibitory concentration (IC50) of 6800 nM. The compound `N=C(N)c1ccc(CCCCC(=O)NCC(O)C(=O)O)cc1` (stereo not drawn) [N-[5-[4-(Aminoiminomethyl)phenyl]-1-oxopentyl]-2-hydroxy-β-alanine] yielded an IC50 of 10000 nM.

Compound `N=C(N)c1ccc(CCCCC(=O)NC(CC(=O)O)c2ccc(O)cc2)cc1` (stereo not drawn) [β-[[5-[4-(aminoiminomethyl)phenyl]-1-oxopentyl]amino]-4-hydroxybenzenepropanoic acid] came in with an IC50 of 800 nM. Still for that read-out and setting: the value for `N=C(N)c1ccc(CCCCC(=O)NC(CC(=O)O)c2ccc(F)cc2)cc1` (stereo not drawn) [β-[[5-[4-(aminoiminomethyl)phenyl]-1-oxopentyl]amino]-4-fluorobenzenepropanoic acid] was 3000 nM. In the case of “βR-[[5-[4-(aminoiminomethyl)phenyl]-1-oxopentyl]amino]-1-naphthalenebutanoic acid”, the % Inhibition (commonly the relative decrease from the control value, in per cent) (test concentration 1 × 10^-5) is 5%.

For `N=C(N)c1ccc(CCCCC(=O)NC(CC(=O)O)c2cccc(C(F)(F)F)c2)cc1` (stereo not drawn) [β-[[5-[4-(aminoiminomethyl)phenyl]-1-oxopentyl]amino]-3-(trifluoromethyl)benzenepropanoic acid], the IC50 came to 7000 nM. For the compound `N=C(N)c1ccc(CCCCC(=O)NCCC(=O)OCc2ccccc2)cc1` [N-[5-[4-(Aminoiminomethyl)phenyl]-1-oxopentyl]-β-alanine, phenylmethyl ester], the half-inhibitory concentration (IC50) stood at 5000 nM. Compound `COc1ccc(C(CC(=O)O)NC(=O)CCCCc2ccc(C(=N)N)cc2)c(O)c1` (racemic) [(±)-β-[[5-[4-(aminoiminomethyl)phenyl]-1-oxopentyl]amino]-2-hydroxy-4-methoxybenzenepropanoic acid] showed an IC50 of 690 nM. In the case of `N=C(N)c1ccc(CCCCC(=O)NC(CC(=O)O)c2ccccc2O)cc1` (racemic) [(±)-β-[[5-[4-(aminoiminomethyl)phenyl]-1-oxopentyl]amino-2-hydroxybenzenepropanoic acid], the half-maximal inhibitory concentration (IC50) stood at 2000 nM. As for `N=C(N)c1ccc(CCCCC(=O)NC(CC(=O)O)c2ccc(-c3ccccc3)cc2)cc1` (stereo not drawn) [β-[[5-[4-(Aminoiminomethyl)phenyl)-1-oxopentyl]amino][1,1'-biphenyl]-4-propanoic acid, acetate salt], the IC50 was determined as 2300 nM.

Regarding `N=C(N)c1ccc(CCCCC(=O)NC(CC(=O)O)c2ccc(OCc3ccccc3)cc2)cc1` (stereo not drawn) [β-[[5-[4-(aminoiminomethyl)phenyl]-1-oxopentyl]amino]-4-(phenylmethoxy)benzenepropanoic acid], half-maximal inhibition (IC50) was put at 1200 nM. Still for that read-out and setting: as for `N=C(N)c1ccc(CCCCC(=O)NC(CCCCc2ccccc2)CC(=O)O)cc1` (stereo not drawn) [β-[[5-[4-(aminoiminomethyl)phenyl]-1-oxopentyl]amino]benzeneheptanoic acid], the figure is 7100 nM; as for `N=C(N)c1ccc(CCCCC(=O)NCC(F)C(=O)O)cc1` (stereo not drawn) [N-[5-[4-(Aminoiminomethyl]phenyl]-1-oxopentyl]-2-fluoro-β-alanine], 30000 nM; as for `N=C(N)c1ccc(CCCCC(=O)NC(CCc2ccccc2)CC(=O)O)cc1` (stereo not drawn) [β-[[5-[4-(aminoiminomethyl)phenyl]-1-oxopentyl]amino]benzenepentanoic acid], 3000 nM.

In turn, `N=C(N)c1ccc(CCCCC(=O)NC(CC(=O)O)c2cccc(Oc3ccccc3)c2)cc1` (stereo not drawn) [β-[[5-[4-(aminoiminomethyl)phenyl]-1-oxopentyl]amino]-3-phenoxybenzenepropanoic acid] registered an IC50 of 5100 nM. Compound `C[n+]1cccc(C(CC(=O)O)NC(=O)CCCCc2ccc(C(=N)N)cc2)c1` (stereo not drawn) [3-[1-[[5-[4-(aminoiminomethyl)phenyl]-1-oxopentyl]amino]-2-carboxyethyl]-1-methylpyridinium chloride] came in with an IC50 of 5800 nM. On the same count and under the same terms, as for `N=C(N)c1ccc(CCCCC(=O)NC(CC(=O)O)c2cccnc2)cc1` (stereo not drawn) [β-[[5-[4-(aminoiminomethyl)phenyl]-1-oxopentyl]amino]-3-pyridinepropanoic acid], the figure is 120 nM.

For `C[C@H](CC(=O)O)NC(=O)CCCCc1ccc(C(=N)N)cc1` [3R-[[5-[4-(aminoiminomethyl)phenyl]-1-oxopentyl]amino]butanoic acid], the half-inhibitory concentration (IC50) is 1300 nM. In the case of `N=C(N)c1ccc(CCCCC(=O)NC(CC(=O)O)c2ccccn2)cc1` (stereo not drawn) [β-[[5-[4-(aminoiminomethyl)phenyl]-1-oxopentyl]amino]-2-pyridinepropanoic acid], the half-inhibitory concentration (IC50) came out at 2300 nM. `N=C(N)c1ccc(CCCCC(=O)NC(CC(=O)O)c2ccc(Br)cc2)cc1` (stereo not drawn) [β-[[5-[4-(aminoiminomethyl)phenyl]-1-oxopentyl]amino]-4-bromobenzenepropanoic acid] registered an IC50 of 3100 nM. Still for that read-out and setting: as for `N=C(N)c1ccc(CCCCC(=O)NCCC(=O)O)cc1` [N-[5-[4 (aminoiminomethyl)phenyl]-1-oxopentyl]-β-alanine], the figure is 6000 nM; as for `N=C(N)c1ccc(CCCCC(=O)NC(CC(=O)O)c2ccc(C(F)(F)F)cc2)cc1` (stereo not drawn) [β-[[5-[4-(aminoiminomethyl)phenyl]-1-oxopentyl]amino]-4-(trifluoromethyl)benzenepropanoic acid], 4300 nM; as for `N=C(N)c1ccc(CCCCC(=O)NC(CC(=O)O)c2ccc(C(=N)N)cc2)cc1` (stereo not drawn) [4-(aminoiminomethyl)-β-[[5-[4-(aminoiminomethyl)phenyl]-1-oxopentyl]amino]benzenepropanoic acid], 1800 nM. On the same count and under the same terms, the value for `N=C(N)c1ccc(C#CCCC(=O)NC(CC(=O)O)c2ccccc2)cc1` (stereo not drawn) [β-[[5-[4-(aminoiminomethyl)phenyl]-1-oxo-4-pentynyl]amino]benzenepropanoic acid] was 1800 nM; that for `N=C(N)c1ccc(CCCCC(=O)NC(CC(=O)O)c2ccc(Cl)cc2)cc1` (stereo not drawn) [β-[[5-[4-(aminoiminomethyl)phenyl]-1-oxopentyl]amino]-4-chlorobenzenepropanoic acid] was 2800 nM; that for `N=C(N)c1ccc(CCCCC(=O)NC(CC(=O)O)c2cc(Cl)cc(Cl)c2)cc1` (stereo not drawn) [β-[[5-[4-(aminoiminomethyl)phenyl]-1-oxopentyl]amino]-3,5-dichlorobenzenepropanoic acid] was 6000 nM. In turn, `N=C(N)c1ccc(CCCCC(=O)NC(CC(=O)O)c2ccc3c(c2)OCO3)cc1` (stereo not drawn) [β-[[5-[4-(aminoiminomethyl)phenyl]-1-oxopentyl]amino]-1,3-benzodioxole-5-propanoic acid] registered a half-inhibitory concentration (IC50) of 280 nM. Regarding `N=C(N)c1ccc(CCCCC(=O)NC(CC(=O)O)C2CC=CCC2)cc1` (stereo not drawn) [β-[[5-[4-(aminoiminomethyl)phenyl]-1-oxopentyl]amino]-3-cyclohexene-1-propanoic acid], the IC50 was 4000 nM. `N=C(N)c1ccc(CCCCC(=O)NC(CC(=O)O)c2ccc(C(=O)O)cc2)cc1` (stereo not drawn) [β-[[5-[4-(aminoiminomethyl)phenyl]-1-oxopentyl]amino]-4-carboxybenzenepropanoic acid] displayed an IC50 of 1300 nM. The same measure, in the same setting: as for `N=C(N)c1ccc(CCCCC(=O)NC(CC(=O)O)Cc2ccccc2)cc1` (stereo not drawn) [β-[5-[4-(Aminoiminomethyl)phenyl]-1-oxopentyl]amino]benzenebutanoic acid], the figure is 3000 nM. With `COc1ccc(C(CC(=O)O)NC(=O)CCCCc2ccc(C(=N)N)cc2)c(OC)c1` (stereo not drawn) [β-[[5-[4-(aminoiminomethyl)phenyl]-1-oxopentyl]amino]-2,4-dimethoxybenzenepropanoic acid], the IC50 amounted to 2500 nM. Take `COc1ccc(OC)c(C(CC(=O)O)NC(=O)CCCCc2ccc(C(=N)N)cc2)c1` (stereo not drawn) [β-[[5-[4-(aminoiminomethyl)phenyl]-1-oxopentyl]amino]-2,5-dimethoxybenzenepropanoic acid]: half-maximal inhibition (IC50) was put at 9000 nM. `N#Cc1cccc(C(CC(=O)O)NC(=O)CCCCc2ccc(C(=N)N)cc2)c1` (stereo not drawn) [β-[[5-[4-(aminoiminomethyl)phenyl]-1-oxopentyl]amino]-3-cyanobenzenepropanoic acid] gave a half-maximal inhibitory concentration (IC50) of 1400 nM.

`N=C(N)c1ccc(CCCCC(=O)NC(CC(=O)O)c2ccc(Oc3ccccc3)cc2)cc1` (stereo not drawn) [β-[[5-[4-(aminoiminomethyl)phenyl]-1-oxopentyl]amino]-4-phenoxybenzenepropanoic acid] gave an IC50 of 2000 nM. Same read-out and setting: as for `COc1cc(OC)cc(C(CC(=O)O)NC(=O)CCCCc2ccc(C(=N)N)cc2)c1` (stereo not drawn) [β-[[5-[4-(aminoiminomethyl)phenyl]-1-oxopentyl]amino]-3,5-dimethoxybenzenepropanoic acid], the figure is 330 nM; as for `N=C(N)c1ccc(CCCCC(=O)NC(CC(=O)O)c2cccs2)cc1` (racemic) [(±)-β-[[5-[4-(aminoiminomethyl)phenyl]-1-oxopentyl]amino]-2-thiophenepropanoic acid], 1700 nM; as for `COc1cccc(C(CC(=O)O)NC(=O)CCCCc2ccc(C(=N)N)cc2)c1` (stereo not drawn) [β-[[5-[4-(aminoiminomethyl)phenyl]-1-oxopentyl]amino]-3-methoxybenzenepropanoic acid], 1300 nM.
